{"source": "patent US20200190464A1", "about": "“NOVEL LAC[…] ANTIVIRAL EFFECT AND COMPOSITION THEREOF” (priority 2017, published 2020)", "tested_on": "A/CK/ANYANG/MS96 (H9N2)", "design": "species or system low-pathogenic avian influenza H9N2 serotype virus", "data": [{"smiles": "CCOC(=O)C1=C[C@@H](OC(CC)CC)[C@H](NC(C)=O)[C@@H](N)C1", "note": "[Tamiflu, Oseltamivir phosphate]", "values": [{"measurement": "HA positive (eggs)", "result": "0/3"}, {"measurement": "HA titer", "result": 0}, {"measurement": "antiviral activity (virus detection in sensitized and inoculated eggs)", "result": "showed antiviral activity"}]}]}
